Measured values reported in ChEMBL document CHEMBL5550090, “Synthesis and biological evaluation of 1H-pyrrolo[3,2-g]isoquinolines” (Bioorg Med Chem, 2024).

What was measured:
[1] = biological target: T1, CDK9/cyclin T1 (Homo sapiens) (UniProt O60563+P50750); test: Inhibition of human recombinant CDK9/cyclin T expressed in baculovirus-infected Sf9 cells assessed as enzyme residual activity using YSPTSPSYSPTSPSYSPTSPSKKKK as substrate at 1 uM incubated for 30 mins in presence of ATP by ADP-Glo kinase assay
[2] = biological target: T1, CDK9/cyclin T1 (Homo sapiens); test: Inhibition of human recombinant CDK9/cyclin T expressed in baculovirus-infected Sf9 cells assessed as enzyme residual activity using YSPTSPSYSPTSPSYSPTSPSKKKK as substrate at 10 uM incubated for 30 mins in presence of ATP by ADP-Glo kinase assay
[3] = biological target: Dual specificity tyrosine-phosphorylation-regulated kinase 1A (Rattus norvegicus) (UniProt Q63470); test: Inhibition of recombinant rat DYRK1A kinase domain (1 to 499 residues) expressed in bacteria assessed as enzyme residual activity using KKISGRLSPIMTEQ as substrate at 1 uM incubated for 30 mins in presence of ATP by ADP-Glo kinase assay
[4] = biological target: T2, Serine/threonine-protein kinase pim-1 (Homo sapiens, UniProt P11309); test: Inhibition of human recombinant PIM-1 expressed in bacteria assessed as enzyme residual activity using histone H1 as substrate at 1 uM incubated for 30 mins in presence of ATP by ADP-Glo kinase assay
T2 sequence (P11309 whole entry, looked up, canonical isoform): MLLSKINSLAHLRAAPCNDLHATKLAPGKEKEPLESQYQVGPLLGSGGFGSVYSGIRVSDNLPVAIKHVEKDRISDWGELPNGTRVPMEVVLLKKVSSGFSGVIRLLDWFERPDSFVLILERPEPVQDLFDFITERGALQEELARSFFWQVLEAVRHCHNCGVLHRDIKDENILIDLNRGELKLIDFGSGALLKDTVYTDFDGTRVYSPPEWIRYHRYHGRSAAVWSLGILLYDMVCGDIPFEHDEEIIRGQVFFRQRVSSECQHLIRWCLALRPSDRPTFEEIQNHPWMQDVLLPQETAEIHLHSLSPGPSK

[5] = biological target: Casein kinase I isoform epsilon (Homo sapiens) (UniProt P49674); test: Inhibition of human recombinant CK1 epsilon expressed in baculovirus-infected Sf9 cells assessed as enzyme residual activity using RRKHAAIGSpAYSITA as substrate at 10 uM incubated for 30 mins in presence of ATP by ADP-Glo kinase assay
Casein kinase I isoform epsilon (Homo sapiens), sequence (P49674 whole entry, looked up, canonical isoform): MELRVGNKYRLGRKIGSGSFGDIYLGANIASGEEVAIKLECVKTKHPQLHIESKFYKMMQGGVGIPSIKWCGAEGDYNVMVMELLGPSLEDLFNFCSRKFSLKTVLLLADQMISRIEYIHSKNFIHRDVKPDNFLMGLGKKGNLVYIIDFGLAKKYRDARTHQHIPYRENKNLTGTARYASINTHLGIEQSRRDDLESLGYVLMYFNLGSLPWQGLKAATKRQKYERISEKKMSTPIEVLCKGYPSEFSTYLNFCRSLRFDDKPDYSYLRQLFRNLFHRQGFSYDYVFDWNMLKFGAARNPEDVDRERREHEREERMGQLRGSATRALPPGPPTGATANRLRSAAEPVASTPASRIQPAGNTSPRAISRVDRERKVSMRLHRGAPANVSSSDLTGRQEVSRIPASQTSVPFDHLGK

[6] = biological target: Dual specificity protein kinase CLK1 (Mus musculus) (UniProt P22518); test: Inhibition of recombinant mouse CLK1 expressed in bacteria assessed as enzyme residual activity using GRSRSRSRSRSR as substrate at 10 uM incubated for 30 mins in presence of ATP by ADP-Glo kinase assay
Dual specificity protein kinase CLK1 (Mus musculus), sequence (P22518 whole entry, looked up, the tested form may be a part, canonical isoform): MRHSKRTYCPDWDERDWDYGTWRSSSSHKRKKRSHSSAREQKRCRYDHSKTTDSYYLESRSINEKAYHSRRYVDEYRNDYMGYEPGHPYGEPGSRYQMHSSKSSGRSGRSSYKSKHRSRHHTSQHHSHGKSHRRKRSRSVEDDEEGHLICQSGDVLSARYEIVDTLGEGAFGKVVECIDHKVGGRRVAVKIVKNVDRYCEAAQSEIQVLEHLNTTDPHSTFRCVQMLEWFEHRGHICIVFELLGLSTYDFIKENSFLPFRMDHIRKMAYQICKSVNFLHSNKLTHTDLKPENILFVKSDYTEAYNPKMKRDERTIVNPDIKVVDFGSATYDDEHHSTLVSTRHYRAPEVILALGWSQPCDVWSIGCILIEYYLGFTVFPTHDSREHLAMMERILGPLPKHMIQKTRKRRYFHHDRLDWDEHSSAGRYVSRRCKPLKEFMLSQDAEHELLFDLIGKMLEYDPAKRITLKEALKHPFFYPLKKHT

[7] = biological target: Casein kinase I isoform epsilon (Homo sapiens) (UniProt P49674); test: Inhibition of human recombinant CK1 epsilon expressed in baculovirus-infected Sf9 cells assessed as enzyme residual activity using RRKHAAIGSpAYSITA as substrate at 1 uM incubated for 30 mins in presence of ATP by ADP-Glo kinase assay
[8] = biological target: Dual specificity protein kinase CLK1 (Mus musculus) (UniProt P22518); test: Inhibition of recombinant mouse CLK1 expressed in bacteria assessed as enzyme residual activity using GRSRSRSRSRSR as substrate at 1 uM incubated for 30 mins in presence of ATP by ADP-Glo kinase assay
[9] = biological target: T3, Serine/threonine-protein kinase haspin (Homo sapiens, UniProt Q8TF76); test: Inhibition of recombinant human Haspin kinase domain (470 to 798 residues) expressed in bacteria using histone H3 (1 to 21) peptide as substrate incubated for 30 mins in presence of ATP by ADP-Glo kinase assay
T3 sequence (Q8TF76 whole entry): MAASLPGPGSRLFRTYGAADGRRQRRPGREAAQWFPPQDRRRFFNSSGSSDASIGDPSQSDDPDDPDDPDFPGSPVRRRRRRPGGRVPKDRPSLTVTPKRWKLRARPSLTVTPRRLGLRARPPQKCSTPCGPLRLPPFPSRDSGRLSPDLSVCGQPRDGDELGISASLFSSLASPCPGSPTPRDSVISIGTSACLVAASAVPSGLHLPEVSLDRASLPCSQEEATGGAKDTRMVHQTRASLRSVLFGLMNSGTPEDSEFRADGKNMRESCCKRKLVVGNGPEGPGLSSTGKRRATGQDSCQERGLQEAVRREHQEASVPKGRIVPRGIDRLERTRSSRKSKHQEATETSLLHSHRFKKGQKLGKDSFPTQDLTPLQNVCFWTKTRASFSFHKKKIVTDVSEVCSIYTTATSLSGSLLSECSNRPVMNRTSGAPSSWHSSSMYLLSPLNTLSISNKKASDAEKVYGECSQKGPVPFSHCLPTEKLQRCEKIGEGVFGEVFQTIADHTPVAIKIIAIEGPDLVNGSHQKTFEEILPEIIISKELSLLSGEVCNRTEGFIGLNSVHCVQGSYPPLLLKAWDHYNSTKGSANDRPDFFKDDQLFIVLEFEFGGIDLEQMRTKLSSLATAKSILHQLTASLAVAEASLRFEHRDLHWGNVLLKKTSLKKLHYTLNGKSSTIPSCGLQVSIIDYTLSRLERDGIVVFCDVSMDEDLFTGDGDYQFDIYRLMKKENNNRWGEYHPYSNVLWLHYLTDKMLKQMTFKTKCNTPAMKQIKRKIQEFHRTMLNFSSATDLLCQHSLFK

[10] = biological target: T2, Serine/threonine-protein kinase pim-1; test: Inhibition of human recombinant PIM-1 expressed in bacteria assessed as enzyme residual activity using histone H1 as substrate at 10 uM incubated for 30 mins in presence of ATP by ADP-Glo kinase assay
[11] = biological target: Glycogen synthase kinase-3 beta (Homo sapiens) (UniProt P49841); test: Inhibition of human recombinant GSK-3 beta expressed in baculovirus-infected Sf9 cells assessed as enzyme residual activity using YRRAAVPPSPSLSRHSSPHQSpEDEEE as substrate at 1 uM incubated for 30 mins in presence of ATP by ADP-Glo kinase assay
Glycogen synthase kinase-3 beta (Homo sapiens), sequence (P49841 whole entry, looked up, the tested form may be a part): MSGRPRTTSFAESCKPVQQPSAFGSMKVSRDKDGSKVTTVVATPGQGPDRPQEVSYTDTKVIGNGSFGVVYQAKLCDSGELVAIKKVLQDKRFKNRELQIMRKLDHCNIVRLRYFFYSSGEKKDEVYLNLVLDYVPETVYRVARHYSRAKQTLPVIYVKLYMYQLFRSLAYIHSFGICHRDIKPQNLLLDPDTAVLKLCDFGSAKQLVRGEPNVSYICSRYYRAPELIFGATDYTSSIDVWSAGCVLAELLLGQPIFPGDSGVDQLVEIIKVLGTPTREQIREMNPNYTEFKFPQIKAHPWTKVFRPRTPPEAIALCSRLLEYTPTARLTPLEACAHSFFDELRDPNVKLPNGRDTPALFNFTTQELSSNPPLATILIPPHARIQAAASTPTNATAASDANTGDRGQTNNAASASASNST

[12] = biological target: Dual specificity tyrosine-phosphorylation-regulated kinase 1A (Rattus norvegicus) (UniProt Q63470); test: Inhibition of recombinant rat DYRK1A kinase domain (1 to 499 residues) expressed in bacteria assessed as enzyme residual activity using KKISGRLSPIMTEQ as substrate at 10 uM incubated for 30 mins in presence of ATP by ADP-Glo kinase assay
[13] = biological target: Glycogen synthase kinase-3 beta (Homo sapiens) (UniProt P49841); test: Inhibition of human recombinant GSK-3 beta expressed in baculovirus-infected Sf9 cells assessed as enzyme residual activity using YRRAAVPPSPSLSRHSSPHQSpEDEEE as substrate at 10 uM incubated for 30 mins in presence of ATP by ADP-Glo kinase assay
[14] = biological target: T4, Cyclin-dependent kinase 5/CDK5 activator 1 (Homo sapiens) (UniProt Q00535+Q15078); test: Inhibition of human recombinant CDK5/p25 expressed in bacteria assessed as enzyme residual activity using histone H1 as substrate at 1 uM incubated for 30 mins in presence of ATP by ADP-Glo kinase assay
T4 sequence (Q00535 whole entry): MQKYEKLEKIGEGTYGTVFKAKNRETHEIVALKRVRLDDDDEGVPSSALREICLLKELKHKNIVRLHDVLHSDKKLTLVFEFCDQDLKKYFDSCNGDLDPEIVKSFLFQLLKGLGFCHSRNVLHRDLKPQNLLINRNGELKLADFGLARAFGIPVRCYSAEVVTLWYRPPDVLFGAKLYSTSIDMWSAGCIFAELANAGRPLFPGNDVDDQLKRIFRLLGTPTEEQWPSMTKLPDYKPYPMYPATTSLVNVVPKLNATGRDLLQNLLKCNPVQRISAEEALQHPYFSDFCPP
T4 sequence (Q15078 99-307 partner limits assumed): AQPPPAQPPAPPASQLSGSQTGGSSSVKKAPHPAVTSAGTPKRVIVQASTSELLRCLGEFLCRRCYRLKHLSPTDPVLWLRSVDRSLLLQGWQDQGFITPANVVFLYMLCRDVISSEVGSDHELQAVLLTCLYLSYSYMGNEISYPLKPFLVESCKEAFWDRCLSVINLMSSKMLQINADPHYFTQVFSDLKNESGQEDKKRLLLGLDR

[15] = biological target: T4, Cyclin-dependent kinase 5/CDK5 activator 1 (Homo sapiens); test: Inhibition of human recombinant CDK5/p25 expressed in bacteria assessed as enzyme residual activity using histone H1 as substrate at 10 uM incubated for 30 mins in presence of ATP by ADP-Glo kinase assay

SMILES | Activity [1] [%] | Activity [2] [%] | Activity [3] [%] | Activity [4] [%] | Activity [5] [%] | Activity [6] [%] | Activity [7] [%] | Activity [8] [%] | IC50 [9] [nM] | Activity [10] [%] | Activity [11] [%] | Activity [12] [%] | Activity [13] [%] | Activity [14] [%] | Activity [15] [%]
Cn1ccc2cc3ccncc3cc21 | 89 | 60 | 67 | 67 | 85 | 58 | 92 | 92 | ~1000 | 35 | 100 | 29 | 83 | 53 | 38
CN(C)Cc1c[nH]c2cc3cnccc3cc12 | 57 | 18 | 74 | 66 | 99 | 62 | 100 | 91 | – | 67 | 78 | 67 | 66 | 100 | 97
NCc1c[nH]c2cc3cnccc3cc12 | 93 | 58 | 77 | 97 | 96 | 86 | 99 | 99 | – | 84 | 94 | 62 | 80 | 100 | 94
c1cc2cc3c(-c4cncnc4)c[nH]c3cc2cn1 | 79 | 43 | 51 | 63 | 43 | 14 | 81 | 54 | 249 | 33 | 68 | 20 | 59 | 100 | 72
Cn1cc(I)c2cc3ccncc3cc21 | 57 | 26 | 46 | 48 | 72 | 22 | 100 | 61 | 243 | 26 | 81 | 14 | 60 | 95 | 22
COc1ncc2cc3cnccc3c([N+](=O)[O-])c2n1 | – | 43 | – | – | 53 | 8 | – | – | – | 55 | – | 20 | 29 | – | 80
Nc1cc2cc3ccncc3cc2[nH]1 | 74 | 27 | 100 | 100 | 52 | 20 | 79 | 73 | – | 88 | 69 | 39 | 64 | 89 | 99
c1ccc(-c2c[nH]c3cc4cnccc4cc23)cc1 | 83 | 63 | 53 | 53 | 88 | 44 | 100 | 74 | 482 | 18 | 66 | 19 | 77 | 97 | 73
CCN(CC)Cc1c[nH]c2cc3cnccc3cc12 | 86 | 51 | 89 | 65 | 100 | 84 | 98 | 89 | – | 47 | 79 | 76 | 77 | – | 100
c1cc2cc3cc[nH]c3cc2cn1 | 76 | 34 | 99 | 90 | 90 | 67 | 97 | 87 | – | 45 | 100 | 37 | 100 | 100 | 98
OCc1c[nH]c2cc3cnccc3cc12 | 81 | 55 | 77 | 100 | 98 | 55 | 100 | 96 | 819 | 100 | 84 | 62 | 81 | – | 94
CCNCc1c[nH]c2cc3cnccc3cc12 | 74 | 37 | 80 | 76 | 100 | 80 | 100 | 94 | – | 74 | 76 | 63 | 80 | – | 89
Clc1c[nH]c2cc3cnccc3cc12 | 62 | 25 | 61 | 63 | 82 | 39 | 100 | 78 | – | 16 | 92 | 21 | 82 | 100 | 68
CNCc1c[nH]c2cc3cnccc3cc12 | 58 | 37 | – | 89 | 98 | 74 | 100 | 95 | – | 90 | 87 | 92 | 83 | 93 | 88
